Patent publication US7186855B2, “Prodrugs of GABA analogs, compositions and uses thereof” (Xenoport, Inc., priority 2001, dated 2007)

Legend:
[1] = Uptake of gabapentin following intracolonic administration of gabapentin or gabapentin prodrugs in rats; assay type: in vivo; conditions: dose equivalent to 25 mg gabapentin per kg
Experimental: Sustained release oral dosage forms, which release drug slowly over periods of 6–24 hours, generally release a significant proportion of the dose within the colon. […] This experiment was conducted to assess the suitability of gabapentin prodrugs for use in an oral sustained release dosage form.
Rats were obtained commercially and were pre-cannulated in the both the ascending colon and the jugular vein. Animals were conscious at the time of the experiment. All animals were fasted overnight and until 4 hours post-dosing. Gabapentin or gabapentin prodrugs (59), (63), (69), (72), (77), (79), (85), (117) and (126) were administered as a solution (in water or PEG 400) directly into the colon via the cannula at a dose equivalent to 25 mg of gabapentin per kg. Blood samples (0.5 mL) were obtained from the jugular cannula at intervals over 8 hours and were quenched immediately by addition of acetonitrile/methanol to prevent further conversion of the prodrug. Blood samples were analyzed as described below.
• 1. In blank 1.5 mL eppendorf tubes, 300 μL of 50/50 acetonitrile/methanol and 20 μL of p-chlorophenylalanine was added as an internal standard. • 2. […]
An API 2000 LC/MS/MS spectrometer equipped with Shidmadzu 10DVp binary pumps and a CTC HTS-PAL autosampler were used in the analysis. […] The peaks were integrated using Analyst 1.1 quantitation software.

mouse = conditions: cited from earlier work

| Structure (SMILES) | gabapentin AUC relative to colonic administration of gabapentin itself [1] | maximum plasma concentration of gabapentin (Cmax) relative to colonic administration of gabapentin itself [1] | toxicity (LD50, mouse) (mouse) |
| --- | --- | --- | --- |
| CC(OC(=O)NCC1(CC(=O)O)CCCCC1)OC(=O)C(C)C (stereo not drawn) [(77), 1-{[(α-Isobutanoyloxyethoxy)carbonyl]aminomethyl}-1-Cyclohexane Acetic Acid] | greater than 10 fold | greater than 10 fold | – |
| NCC1(CC(=O)O)CCCCC1 [gabapentin] | – | – | more than 8000 mg/kg |
| O=C1CC2(CCCCC2)CN1 [lactam (5)] | – | – | 300 mg/kg |
